Measured values: PMC13091788 (NPJ Aging, 2026)

Columns and labels:
C2C12 cells [1] = experiment: Mitochondrial morphology analysis (anti-Tom20, MiNA); format: cell-based, mouse; conditions: C2C12, Q-BRB or AcA-BRB 10 μM, 48 h
Experimental: Cells were fixed with 4% paraformaldehyde in PBS for 15 min at 37 °C, washed three times with PBS, and permeabilized with 0.1% Triton X-100 in PBS for 10 min at room temperature (RT). After three additional washes with PBS, cells were blocked with 10% bovine serum albumin (BSA) in PBS for 10 min at RT. Cells were incubated with anti-Tom20 primary antibody (1:750 dilution, 11802-1-AP, Proteintech) in PBS containing 5% BSA for 1 h at RT, followed by three PBS washes. Hoechst 33342 (1:2000 dilution) and Alexa Fluor-conjugated secondary antibody (1:500 dilution, A11029, Invitrogen) in PBS containing 5% BSA were applied for 30 min at RT.
After three final PBS washes, cells were mounted with Fluorescent Mounting Medium (S3023, Dako), and imaged using an FV3000 confocal laser scanning microscope (Olympus). Images were acquired as Z-stacks with 0.2 μm intervals and reconstructed into maximum intensity projections using Fiji/ImageJ software.
Mitochondrial morphology was quantified using the MiNA plugin for Fiji (https://imagej.net/plugins/mina). Thirty cells per group were randomly selected for analysis. Average mitochondrial length and other morphological parameters were calculated according to the plugin’s standard analysis pipeline.

C2C12 cells [2] = experiment: Mitochondrial ROS (4-HNE in isolated mitochondrial fractions); format: cell-based, mouse; conditions: C2C12, Q-BRB or AcA-BRB 5 or 10 μM, 24 h
Excerpt: Proteins in sample buffer were separated by SDS-PAGE and transferred to Immobilon-P PVDF membranes (IPVH00010, Millipore). Blots were probed with the indicated antibodies, and protein bands on the blot were visualized using Chemi-Lumi One L (07880-70, Nacalai Tesque) or Immobilon Western Chemiluminescent HRP Substrate (WBKLS0500, Millipore). Band images were captured using a LuminoGraph I imager (WSE-6100, ATTO). Relative band intensities were quantified using Fiji/ImageJ software. Unprocessed western blot images corresponding to the data presented in the main and supplementary figures are provided in Supplementary Figures 11–16. Mitochondria were isolated using differential centrifugation. Cells were washed twice with ice-cold PBS, harvested by scraping, and collected by centrifugation at 500 × g for 5 min at 4 °C. The resulting cell pellets were resuspended in ice-cold mitochondrial isolation buffer (250 mM sucrose, 10 mM HEPES-KOH pH 7.4, 1 mM EDTA, and protease inhibitor cocktail) and incubated on ice for 10 min. Cells were mechanically disrupted on ice using a 27 G needle. The homogenates were centrifuged at 800 × g for 10 min at 4 °C to remove nuclei and cellular debris. The supernatants were transferred to new tubes and centrifuged at 8000 × g for 10 min at 4 °C to obtain the mitochondrial fraction. […] Protein concentration was measured using the BCA Protein Assay Kit (Takara Bio).

[3] = test system: mitochondria isolated from hearts of aged mice; experiment: Oxygen consumption analysis of isolated cardiac mitochondria; format: in vivo, mouse; conditions: AcA-BRB 0.5 mg/mL in drinking water
Experimental: Mouse heart tissue was homogenized in mitochondrial isolation buffer (210 mM mannitol, 70 mM sucrose, 5 mM HEPES-KOH, 1 mM EGTA, 0.5% fatty acid-free BSA, pH 7.2) using a glass-teflon homogenizer. Homogenates were centrifuged at 27,000 × g for 10 min at 4 °C, and the resulting pellets were resuspended in mitochondrial isolation buffer. Samples were centrifuged at 500 × g for 5 min at 4 °C, and the supernatants were collected and centrifuged at 10,000 × g for 5 min at 4 °C. The pellet was then resuspended in mitochondrial isolation buffer and centrifuged for 5 min at 10,000 × g at 4 °C. The resulting pellets were suspended in BSA-free mitochondrial isolation buffer, and mitochondrial protein concentration was determined using the Bio-Rad Protein Assay Dye Reagent (Bio-Rad Laboratories). Samples were then incubated with an equal volume of mitochondrial isolation buffer and subjected to oxygen consumption analysis.
Isolated mitochondria were diluted with mitochondrial assay solution (220 mM mannitol, 70 mM sucrose, 2 mM HEPES-KOH, 1 mM EGTA, 10 mM KH2PO4, 5 mM MgCl2, 0.2% fatty acid-free BSA, 2 mM malate, 10 mM pyruvate, pH 7.2) to 80 μg/mL. […] OCR was measured under basal conditions and after each injection using an XFe24 extracellular flux analyzer (Seahorse Bioscience).

86-week-old aged mice = experiment: Survival analysis in aged mice on normal diet; format: in vivo, mouse; conditions: 0.5 mg/mL in drinking water, from 86 weeks of age
Excerpt: All experimental procedures were approved by the Ethics Review Committee for Animal Experimentation at Kumamoto University, Kumamoto, Japan (approval No. A 2024-083). Procedures followed the guidelines and recommendations outlined by the ILAR Guide for the Care and Use of Laboratory Animals (8th Edition, 2011). Prior to tissue collection, mice were euthanized under isoflurane anesthesia, followed by cervical dislocation to ensure rapid euthanasia, a procedure also employed during sacrifice for tissue harvesting. Euthanasia was performed when animals met the established criteria for humane endpoints, specifically a body weight loss exceeding 20% over a 3-day period or 25% over a 1-week period, in accordance with the Kumamoto University Ethics Review Committee for Animal Experimentation above. All animals fed a normal diet (CE-2, CLEA) were randomly assigned to two groups: tap water only and tap water supplemented with AcA-BRB (0.5 mg/mL). Mice were housed in an animal facility with lighting cycles automatically controlled (12 h light/12 h dark), maintained at a stable temperature of 22 ± 2 °C and a relative humidity of 40–80%. C57BL/6NJcl wild-type (WT) male mice aged 2, 20, and 24 months were used in this study.

[4] = test system: high-fat diet (HFD32)-fed mice; experiment: Survival analysis in high-fat diet-fed mice; format: in vivo, mouse; conditions: 0.5 mg/mL in drinking water from 60 weeks old, HFD32 from 8 weeks of age
Experimental: For survival analysis under metabolic stress conditions, two-month-old C57BL/6NJcl male mice fed a high-fat diet (HFD 32: water 6.2%, protein 25.5%, fat 32.0%, ash 4.0%, carbohydrate 29.4%, fiber 2.9%, providing 507.6 kcal/100 g; CLEA) were randomly assigned to two groups: tap water only and tap water supplemented with AcA-BRB (0.5 mg/mL).

**Q.** With `COc1ccc2cc3[n+](cc2c1O)CCc1cc2c(cc1-3)OCO2` [berberrubine] as the compound, how does the mitochondrial elongation (C2C12 cells [1]) read?
**A.** Its mitochondrial elongation is “significantly enhanced”.

**Q.** And the “mitochondrial ROS (4-HNE levels in isolated mitochondrial fractions)” value (C2C12 cells [2])?
**A.** The value was “modest increase”.

**Q.** What about the “ROS production (4-HNE in isolated cardiac mitochondria)” value [3] of the same compound?
**A.** The value was “mild rise”.

**Q.** And the “OCR of mitochondria isolated from hearts” value ([3]; vs controls)?
**A.** The value was “improved”.

**Q.** What about the survival rate (86-week-old aged mice) of the same compound?
**A.** The survival rate was “did not significantly affect”.

**Q.** What about the “lifespan compared with control mice” value [4] of the same compound?
**A.** The value was “significantly prolonged”.
